The data set deals with cytochrome P-450 aniline p-hydroxylation. Briefly: inhibitory action of alcohols on cytochrome P-450 aniline p-hydroxylation (data of Cohen and Mannering). Type of data set: biochemical. The settings on record: versus the electronic nose QSAR and another QSAR on the cytochrome P-450 system. The text has this:
To test the ability of the “electronic nose” to identify molecules of interest having a particular biological activity selected from a library of molecules of interest, a quantitative structure-activity relationship (QSAR) was used to predict the inhibitory action of a series of alcohols on cytochrome P-450 aniline p-hydroxylation.
The values are expressed as PI50, where I50 is the concentration of the alcohol (in mM) at which the activity of the enzyme is 50% inhibited, and PI50 is the negative logarithm of I50. More positive numbers correspond to more strongly inhibiting alcohols.

Regarding `OCc1ccccc1` [benzyl alcohol], the “activity compared with QSAR prediction” value is given as “higher activity than is predicted”.

The record behind these values is patent US6387329B1, “Use of an array of polymeric sensors of varying thickness for detecting analytes in fluids” (California Institute of Technology, priority 1998, dated 2002).
